From patent US20260028365A1 (BIOGEN MA INC., priority 2022, published 2026)
Read-outs that look alike come from different tables or passages of the source.

Experiments:
[1] = target: JH2 domain of human Tyk2 (Homo sapiens (Human), UniProt P29597); experiment: JH2 Biochemical Assay (TR-FRET probe displacement); assay type: binding
[2] = target: Tyk2 (Homo sapiens (Human), UniProt P29597); experiment: pSTAT4 Cell Assay (MSD, NK92 cells); assay type: cell-based
[3] = JH2 domain of human Tyk2, TR-FRET probe displacement
[4] = TR-FRET probe displacement, JH2 domain of human Tyk2
[5] = TR-FRET probe displacement, JH2 domain

Sequence of JH2 domain of human Tyk2 (P29597 575-876): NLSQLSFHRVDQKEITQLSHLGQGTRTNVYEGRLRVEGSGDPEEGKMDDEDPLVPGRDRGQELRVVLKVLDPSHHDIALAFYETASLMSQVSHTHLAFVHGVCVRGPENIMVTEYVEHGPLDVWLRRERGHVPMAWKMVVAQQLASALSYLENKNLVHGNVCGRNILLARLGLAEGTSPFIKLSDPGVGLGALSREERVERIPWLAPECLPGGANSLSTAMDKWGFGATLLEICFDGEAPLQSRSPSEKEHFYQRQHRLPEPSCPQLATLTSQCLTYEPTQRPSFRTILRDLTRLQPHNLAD
Sequence of Tyk2 (P29597 whole entry, the tested form may be a part): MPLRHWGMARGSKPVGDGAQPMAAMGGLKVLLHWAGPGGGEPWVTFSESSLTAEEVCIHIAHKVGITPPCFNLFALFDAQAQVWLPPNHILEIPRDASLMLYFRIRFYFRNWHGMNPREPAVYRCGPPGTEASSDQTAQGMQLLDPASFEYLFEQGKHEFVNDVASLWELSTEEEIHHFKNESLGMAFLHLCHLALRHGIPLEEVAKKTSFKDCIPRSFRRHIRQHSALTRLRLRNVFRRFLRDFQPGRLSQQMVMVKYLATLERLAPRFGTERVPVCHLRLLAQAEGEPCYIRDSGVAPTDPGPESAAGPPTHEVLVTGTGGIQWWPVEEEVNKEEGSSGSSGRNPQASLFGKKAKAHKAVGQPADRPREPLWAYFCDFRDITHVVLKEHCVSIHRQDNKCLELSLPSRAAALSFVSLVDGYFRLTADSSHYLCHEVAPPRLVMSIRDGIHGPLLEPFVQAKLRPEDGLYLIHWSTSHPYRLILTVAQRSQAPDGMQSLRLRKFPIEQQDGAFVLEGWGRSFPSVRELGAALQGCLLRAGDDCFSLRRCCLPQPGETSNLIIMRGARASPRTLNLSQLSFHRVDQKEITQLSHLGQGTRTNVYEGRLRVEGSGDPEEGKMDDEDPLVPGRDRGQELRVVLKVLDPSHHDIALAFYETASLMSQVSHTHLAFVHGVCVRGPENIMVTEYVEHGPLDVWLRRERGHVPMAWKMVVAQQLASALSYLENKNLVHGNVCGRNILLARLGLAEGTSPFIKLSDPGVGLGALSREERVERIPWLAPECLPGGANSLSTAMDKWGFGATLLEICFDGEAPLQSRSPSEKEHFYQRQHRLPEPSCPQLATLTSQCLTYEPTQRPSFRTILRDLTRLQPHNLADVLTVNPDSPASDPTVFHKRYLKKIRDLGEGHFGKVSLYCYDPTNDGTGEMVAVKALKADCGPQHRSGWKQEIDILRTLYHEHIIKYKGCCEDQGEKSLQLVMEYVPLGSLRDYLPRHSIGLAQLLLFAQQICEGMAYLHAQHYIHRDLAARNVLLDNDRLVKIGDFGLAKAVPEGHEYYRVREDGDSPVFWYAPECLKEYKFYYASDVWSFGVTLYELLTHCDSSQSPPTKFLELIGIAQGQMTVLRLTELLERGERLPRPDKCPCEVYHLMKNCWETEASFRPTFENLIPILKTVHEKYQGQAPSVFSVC

Row | Compound | IC50 [1, 3] | IC50 ([2]; MSD) | IC50 [1, 4] | IC50 [1, 5] | IC50 [2]
1 | COCc1ccc(-c2cnc(NC(C)=O)cc2Nc2cc(COC)nc(C3CCOC3)n2)nc1 (stereo not drawn) [Example 570, N-(5-(methoxymethyl)-4′-((6-(methoxymethyl)-2-(tetrahydrofuran-3-yl)pyrimidin-4-yl)amino)-[2,3′-bipyridin]-6′-yl)acetamide] | ≤ 10 nM | 10 to 100 nM | – | – | –
2 | CC(=O)Nc1cc(Nc2cc(C)nc(C(C)(F)F)n2)c(OC[C@]23CC[C@@H](CC2)O3)cn1 [Example 423, N-(5-(((1r,4r)-7-oxabicyclo[2.2.1]heptan-1-yl)methoxy)-4-((2-(1,1-difluoroethyl)-6-methylpyrimidin-4-yl)amino)pyridin-2-yl)acetamide] | ≤ 10 nM | 10 to 100 nM | – | – | –
3 | CO[C@H]1C[C@@H](Oc2cc(Nc3cc(NC(C)=O)ncc3-c3ccn(C)n3)nc(C(C)(F)F)c2)C1 [Example 211, N-(4-((6-(1,1-difluoroethyl)-4-((1s,3s)-3-methoxycyclobutoxy)pyridin-2-yl)amino)-5-(1-methyl-1H-pyrazol-3-yl)pyridin-2-yl)acetamide] | – | ≤ 10 nM | ≤ 10 nM | – | –
4 | CC(=O)Nc1cc(Nc2cc(C)nc(C(C)(F)F)n2)c(OCc2c(C)ncnc2C)cn1 [Example 330, N-(4-((2-(1,1-difluoroethyl)-6-methylpyrimidin-4-yl)amino)-5-((4,6-dimethylpyrimidin-5-yl)methoxy)pyridin-2-yl)acetamide] | – | ≥ 1000 nM | 10 to 100 nM | – | –
5 | CC(=O)Nc1cc(Nc2cc(C)nc(C(C)(F)F)n2)c(OCc2ccn(C)n2)cn1 [Example 475, N-(4-((2-(1,1-difluoroethyl)-6-methylpyrimidin-4-yl)amino)-5-((1-methyl-1H-pyrazol-3-yl)methoxy)pyridin-2-yl)acetamide] | ≤ 10 nM | 10 to 100 nM | – | – | –
6 | CC(=O)Nc1cc(Nc2cc(C)nc(C(C)(C)F)n2)c(-c2ccnc(C)n2)cn1 [Example 176, N-(4-((2-(2-fluoropropan-2-yl)-6-methylpyrimidin-4-yl)amino)-5-(2-methylpyrimidin-4-yl)pyridin-2-yl)acetamide] | – | ≤ 10 nM | ≤ 10 nM | – | –
7 | CC(=O)Nc1cc(Nc2ccnc(C(C)(F)F)n2)c(-c2ccc(CN3CCCC3)cn2)cn1 [Example 878, N-(4′-((2-(1,1-difluoroethyl)pyrimidin-4-yl)amino)-5-(pyrrolidin-1-ylmethyl)-[2,3′-bipyridin]-6′-yl)acetamide] | – | – | – | ≤ 10 nM | ≤ 10 nM
8 | CCN1CCn2nc(-c3cnc(NC(C)=O)cc3Nc3cc(C)nc(C(C)(F)F)n3)cc2C1 [Example 283, N-(4-((2-(1,1-difluoroethyl)-6-methylpyrimidin-4-yl)amino)-5-(5-ethyl-4,5,6,7-tetrahydropyrazolo[1,5-a]pyrazin-2-yl)pyridin-2-yl)acetamide] | – | ≤ 10 nM | ≤ 10 nM | – | –
9 | COc1cnc(Oc2cnc(NC(C)=O)cc2Nc2cc(C)nc(C(C)(F)F)n2)cn1 [Example 356, N-(4-((2-(1,1-difluoroethyl)-6-methylpyrimidin-4-yl)amino)-5-((5-methoxypyrazin-2-yl)oxy)pyridin-2-yl)acetamide] | – | ≥ 1000 nM | ≥ 1000 nM | – | –
10 | CC(=O)Nc1cc(Nc2ccnc(C(C)(F)F)n2)c(-c2cnc(N3CCCC3)cn2)cn1 [Example 843, N-(4-((2-(1,1-difluoroethyl)pyrimidin-4-yl)amino)-5-(5-(pyrrolidin-1-yl)pyrazin-2-yl)pyridin-2-yl)acetamide] | – | – | – | ≤ 10 nM | 10 to 100 nM
11 | CC(=O)Nc1cc(Nc2cc(C)nc(C(C)(F)F)n2)c(-c2ncc(C(F)F)cn2)cn1 [Example 670, N-(4-((2-(1,1-difluoroethyl)-6-methylpyrimidin-4-yl)amino)-5-(5-(difluoromethyl)pyrimidin-2-yl)pyridin-2-yl)acetamide] | ≤ 10 nM | 10 to 100 nM | – | – | –
12 | COc1cncc(-c2cnc(NC(C)=O)cc2Nc2ccnc(C(C)(F)F)n2)n1 [Example 273, N-(4-((2-(1,1-difluoroethyl)pyrimidin-4-yl)amino)-5-(6-methoxypyrazin-2-yl)pyridin-2-yl)acetamide] | – | 100 to 1000 nM | 10 to 100 nM | – | –
